ChEMBL document CHEMBL1201862, “PubChem BioAssay data set” (2004)
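Test compounds were applied to cells in 96-well plates for 48 hours at 5 doses. The concentration for 50% growth inhibition is given as GI50.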 The source made the active and inactive calls. Rule as the data show it: active = GI50 up to about 1.1 µM and inactive = higher.

Columns and labels:
Test in all cases: inhibition of tumour cell growth, NCI panel, 48 h
[1] = test system: OVCAR-3
[2] = test system: T47D
[3] = test system: K562
[4] = test system: SF-268
[5] = test system: HOP-92
[6] = test system: MCF7
[7] = test system: NCI-H460
[8] = test system: SF-539
[9] = test system: PC-3
[10] = test system: M14
[11] = test system: BT-549
[12] = test system: SK-OV-3
[13] = test system: MDA-MB-435
[14] = test system: MOLT-4
[15] = test system: Malme-3M
[16] = test system: 786-0
[17] = test system: SNB-19
[18] = test system: COLO 205
[19] = test system: CAKI-1

| SMILES | GI50 [1] | GI50 [2] | GI50 [3] | GI50 [4] | GI50 [5] | GI50 [6] | GI50 [7] | GI50 [8] | GI50 [9] | GI50 [10] | GI50 [11] | GI50 [12] | GI50 [13] | GI50 [14] | GI50 [15] | GI50 [16] | GI50 [17] | GI50 [18] | GI50 [19] |
| --- | --- | --- | --- | --- | --- | --- | --- | --- | --- | --- | --- | --- | --- | --- | --- | --- | --- | --- | --- |
| NCCCCNCCCNC(=O)c1csc(-c2nc(CCN)sc2Cl)n1 | > 100 µM (inactive) | > 100 µM (inactive) | > 100 µM (inactive) | > 100 µM (inactive) | 8.85 µM (inactive) | > 100 µM (inactive) | > 100 µM (inactive) | > 100 µM (inactive) | > 100 µM (inactive) | > 100 µM (inactive) | > 100 µM (inactive) | > 100 µM (inactive) | > 100 µM (inactive) | > 100 µM (inactive) | > 100 µM (inactive) | > 100 µM (inactive) | > 100 µM (inactive) | > 100 µM (inactive) |  |
| CC1(C)CN=C(Nc2cccc(C(F)(F)F)c2)S1 | > 100 µM (inactive) | > 100 µM (inactive) | > 100 µM (inactive) | > 100 µM (inactive) | > 100 µM (inactive) | > 100 µM (inactive) |  | > 100 µM (inactive) | > 100 µM (inactive) | > 100 µM (inactive) | > 100 µM (inactive) | > 100 µM (inactive) | > 100 µM (inactive) | > 100 µM (inactive) | > 100 µM (inactive) | > 100 µM (inactive) | > 100 µM (inactive) | > 100 µM (inactive) | > 100 µM (inactive) |
| CC(C)(C)OC(=O)N(CCCN)CCCCN(CCCN)C(=O)OC(C)(C)C | > 100 µM (inactive) | > 100 µM (inactive) | > 100 µM (inactive) | > 100 µM (inactive) | > 100 µM (inactive) | > 100 µM (inactive) | > 100 µM (inactive) | > 100 µM (inactive) | > 100 µM (inactive) | > 100 µM (inactive) | > 100 µM (inactive) | > 100 µM (inactive) | > 100 µM (inactive) | > 100 µM (inactive) |  | > 100 µM (inactive) | > 100 µM (inactive) | > 100 µM (inactive) | > 100 µM (inactive) |
| CCOC(=O)[C@@]1(C)CC(O)C(=O)N1C (stereo not given in full) | > 100 µM (inactive) | > 100 µM (inactive) |  | > 100 µM (inactive) | > 100 µM (inactive) | > 100 µM (inactive) |  | > 100 µM (inactive) | > 100 µM (inactive) | > 100 µM (inactive) | > 100 µM (inactive) | > 100 µM (inactive) | > 100 µM (inactive) | > 100 µM (inactive) | > 100 µM (inactive) | > 100 µM (inactive) | > 100 µM (inactive) | > 100 µM (inactive) | > 100 µM (inactive) |
| CO/N=C1\CCC2(O)C3Cc4ccc(O)c5c4C2(CCN3CC2CC2)[C@H]1O5 (stereo not given in full) | > 100 µM (inactive) | > 100 µM (inactive) | > 100 µM (inactive) | > 100 µM (inactive) | > 100 µM (inactive) | > 100 µM (inactive) |  | > 100 µM (inactive) | > 100 µM (inactive) | > 100 µM (inactive) | > 100 µM (inactive) | > 100 µM (inactive) | > 100 µM (inactive) | > 100 µM (inactive) | > 100 µM (inactive) | > 100 µM (inactive) | > 100 µM (inactive) | > 100 µM (inactive) | > 100 µM (inactive) |
| CC(C)(C)OC(=O)N1CCC[C@H]1CSC[C@@H]1CCCN1C(=O)OC(C)(C)C | 22.4 µM (inactive) | 20.6 µM (inactive) | 24.5 µM (inactive) | 39.4 µM (inactive) | 8.43 µM (inactive) | 28.6 µM (inactive) | 34.3 µM (inactive) |  | 26.9 µM (inactive) | 18.6 µM (inactive) | 23.8 µM (inactive) | 69.5 µM (inactive) | 20.7 µM (inactive) | 16.7 µM (inactive) | 25.6 µM (inactive) | 38.8 µM (inactive) | 25.4 µM (inactive) | 16.8 µM (inactive) | 32.4 µM (inactive) |
| CCOC(=O)CCc1cccc2c1oc1c(CCNC(=O)OCC3c4ccccc4-c4ccccc43)cccc12 | 49 µM (inactive) | 22.8 µM (inactive) | > 100 µM (inactive) | 25.2 µM (inactive) | 23.1 µM (inactive) | 36.4 µM (inactive) | > 100 µM (inactive) |  | 35.2 µM (inactive) | 38.5 µM (inactive) | 22.5 µM (inactive) | 49 µM (inactive) | > 100 µM (inactive) | > 100 µM (inactive) | 18.1 µM (inactive) | 37.2 µM (inactive) | 19.9 µM (inactive) | 34.5 µM (inactive) | 12.9 µM (inactive) |
| O=C1c2cc([N+](=O)[O-])cnc2S(=O)(=O)N1c1ccc(Oc2ccccc2)cc1 | > 100 µM (inactive) | > 100 µM (inactive) | > 100 µM (inactive) |  | > 100 µM (inactive) | > 100 µM (inactive) | > 100 µM (inactive) |  | > 100 µM (inactive) | > 100 µM (inactive) | > 100 µM (inactive) | > 100 µM (inactive) | > 100 µM (inactive) | 33 µM (inactive) | > 100 µM (inactive) | > 100 µM (inactive) | > 100 µM (inactive) | > 100 µM (inactive) |  |
| CC(=O)O[C@@H]1[C@H]2[C@@H](OC(=O)c3ccccc3)[C@@H](C)C[C@]2(O)[C@H](OC(C)=O)[C@@]2(C)[C@@H]3CC(C)(C)C(=O)[C@]3(OC(C)=O)C[C@@]12C | > 25 µM (inactive) | > 25 µM (inactive) |  | > 25 µM (inactive) | 8.24 µM (inactive) | > 25 µM (inactive) | 2.06 µM (inactive) | 13.2 µM (inactive) | 17.7 µM (inactive) | 20.8 µM (inactive) | > 25 µM (inactive) | > 25 µM (inactive) | 13.8 µM (inactive) | 2.09 µM (inactive) |  | 17.1 µM (inactive) | > 25 µM (inactive) | 7.05 µM (inactive) | 13.4 µM (inactive) |
| O=c1nc(Oc2c(F)c(F)c(F)c(F)c2F)ccn1C1OC(CO)C(O)C1O (stereo not given) | 53.8 µM (inactive) | > 100 µM (inactive) | > 100 µM (inactive) | > 100 µM (inactive) | > 100 µM (inactive) | > 100 µM (inactive) |  | > 100 µM (inactive) | > 100 µM (inactive) | > 100 µM (inactive) | > 100 µM (inactive) | > 100 µM (inactive) | > 100 µM (inactive) | 43.9 µM (inactive) |  | > 100 µM (inactive) | > 100 µM (inactive) | > 100 µM (inactive) | > 100 µM (inactive) |
| C/C(=C\c1csc(C)n1)[C@@H]1C[C@@H]2O[C@@H]2CCC[C@H](C)[C@H](O)[C@@H](C)C(=O)C(C)(C)[C@@H](O)CC(=O)O1 [EPOTHILONE A] | < 0.0001 µM (active) | < 0.0001 µM (active) | < 0.0001 µM (active) | < 0.0001 µM (active) | 0.0039 µM (active) | < 0.0001 µM (active) | < 0.0001 µM (active) | < 0.0001 µM (active) | < 0.0001 µM (active) | < 0.0001 µM (active) | < 0.0001 µM (active) | < 0.0001 µM (active) | < 0.0001 µM (active) | < 0.0001 µM (active) |  | < 0.0001 µM (active) | < 0.0001 µM (active) | < 0.0001 µM (active) | < 0.0001 µM (active) |
| COC(=O)C1OC(O[C@H]2CC[C@]3(C)[C@H]4CC=C5[C@@H]6CC(C)(C)CC[C@]6(C(=O)OC)[C@H](O)C[C@@]5(C)[C@]4(C)CC[C@H]3C2(C)C)C(O)C(O)C1O (stereo not given in full) | 10.4 µM (inactive) | 12.6 µM (inactive) | 2.8 µM (inactive) | 13.2 µM (inactive) | 16.8 µM (inactive) | 11 µM (inactive) | 6.49 µM (inactive) |  | 6.64 µM (inactive) | 5.22 µM (inactive) | 15.7 µM (inactive) | 15 µM (inactive) | 13.1 µM (inactive) | 3.61 µM (inactive) | 12.8 µM (inactive) | 8.49 µM (inactive) | 13.9 µM (inactive) | 4.98 µM (inactive) | 14.2 µM (inactive) |
| Clc1ccc(Cl)c(NNc2cc(Cl)ccc2Cl)c1 | 3.08 µM (inactive) | 4.28 µM (inactive) | > 10 µM (inactive) | 4.69 µM (inactive) |  | 7.74 µM (inactive) | 3.66 µM (inactive) | > 10 µM (inactive) | 3.66 µM (inactive) | > 10 µM (inactive) | 5.19 µM (inactive) | 5.79 µM (inactive) | 8.09 µM (inactive) | > 10 µM (inactive) | 3.82 µM (inactive) | > 10 µM (inactive) | 9.79 µM (inactive) | > 10 µM (inactive) | > 10 µM (inactive) |
| COC(=O)C1(Cc2ccc3c(c2)CCC3)Cc2ccccc2C1O (stereo not given) | 20.5 µM (inactive) | 22.6 µM (inactive) | 12.2 µM (inactive) | 19.4 µM (inactive) |  | 24.3 µM (inactive) | 18.6 µM (inactive) | 17.5 µM (inactive) | 11.5 µM (inactive) | 19.6 µM (inactive) | 18.7 µM (inactive) | 19.7 µM (inactive) | 18.7 µM (inactive) | 8.22 µM (inactive) | 18.1 µM (inactive) | 16.3 µM (inactive) | 19.3 µM (inactive) | 17.3 µM (inactive) | 23.8 µM (inactive) |
| COc1cc(C2SCC(=O)N2c2ccc(NC(C)=O)cc2)cc(OC)c1OC (stereo not given) | > 100 µM (inactive) | 16.6 µM (inactive) | > 100 µM (inactive) | > 100 µM (inactive) | 48.3 µM (inactive) | 51.3 µM (inactive) | > 100 µM (inactive) | > 100 µM (inactive) | > 100 µM (inactive) | > 100 µM (inactive) | 36.6 µM (inactive) | > 100 µM (inactive) | 52.7 µM (inactive) | 50.9 µM (inactive) |  | > 100 µM (inactive) | > 100 µM (inactive) | > 100 µM (inactive) | 65.2 µM (inactive) |
